Results reported in article PMC8565515, “Dasabuvir Inhibits Human Norovirus Infection in Human Intestinal Enteroids” (mSphere, 2021).
Counter-ions that a name gives are not always drawn. Like-named read-outs stand apart in the source and are kept apart here.

Tests used:
[1] = tested on: GII.4 HuNoV; test: GII.4 HuNoV infection of HIE monolayers, viral genome equivalents by RT-qPCR; format: cell-based, human norovirus; conditions: for activity at 10 µM: Norovirus, 24 h, read-out: (%) HuNoV GEs
[2] = tested on: J2 HIE monolayers
[3] = compound 10 μM, n = 1, J2 HIE monolayers, GII.4 HuNoV, 24 hpi, normalized to DMSO control

Molecule | activity at 10 µM [1, 3] [%] | (%) Cytotoxicity ([2]; human, 24 h, 10 μM) [%] | also measured
CCC[C@H](NC(=O)[C@@H]1[C@H]2CCC[C@H]2CN1C(=O)[C@@H](NC(=O)[C@@H](NC(=O)c1cnccn1)C1CCCCC1)C(C)(C)C)C(=O)C(=O)NC1CC1 [Telaprevir] | 53.2 | 0.86 | 
Cc1cccc(N2CCN(S(=O)(=O)c3ccc4c(c3)CCCN4C(=O)C3CCC3)CC2)c1C [G855-2047] |  |  | (%) HuNoV GEs [1, 3]: 133.69%
CC(C)CN(C[C@@H](O)[C@H](Cc1ccccc1)NC(=O)O[C@H]1CO[C@H]2OCC[C@H]21)S(=O)(=O)c1ccc(N)cc1.CCO [Darunavir Ethanolate] |  |  | (%) HuNoV GEs [1, 3]: 147.86%
CO[C@H]1/C=C/O[C@@]2(C)Oc3c(C)c(O)c4c(O)c(c(/C=N/N5CCN(C)CC5)c(O)c4c3C2=O)NC(=O)/C(C)=C\C=C\[C@H](C)[C@H](O)[C@@H](C)[C@@H](O)[C@@H](C)[C@H](OC(C)=O)[C@@H]1C [Rifampicin] | 60.2 | 2.64 | 
COc1cnc(-n2cnc(C)n2)c2c1c(C(=O)C(=O)N1CCN(C(=O)c3ccccc3)CC1)cn2COP(=O)(O)O [Fostemsavir] | 87.3 | -2.34 | 
CC(C)CN(C[C@@H](O)[C@H](Cc1ccccc1)NC(=O)O[C@H]1CO[C@H]2OCC[C@H]21)S(=O)(=O)c1ccc(N)cc1 [Darunavir] | 91.8 |  | 
O=c1[nH]c(=O)n([C@H]2C[C@H](O)[C@@H](CO)O2)cc1I [Dendrid] | 67.3 | -0.36 | 
Cc1nc(Nc2ccc(F)cc2)nc(N2CCc3ccccc3C2C)c1C (stereo not drawn) [Revaprazan hydrochloride] | 214 | 0.20 | 
O=C(Nc1ccccc1)c1ccccc1O [Salicylanilide] | 85.5 |  | 
Cc1cccc(C)c1OCC(=O)N[C@@H](Cc1ccccc1)[C@@H](O)C[C@H](Cc1ccccc1)NC(=O)[C@H](C(C)C)N1CCCNC1=O [Lopinavir] | 102 | 9.07 | 
C[C@@H](c1ncncc1F)[C@](O)(Cn1cncn1)c1ccc(F)cc1F [Voriconazole] | 14.1 | -1.63 | 
Nc1nc(NC2CC2)c2ncn([C@H]3C=C[C@@H](CO)C3)c2n1 [Abacavir] | 64.9 | 0.27 | 
CCS(=O)(=O)CCn1c([N+](=O)[O-])cnc1C [Tinidazole] | 41 | -0.09 | 
CC[C@@H](CO)NCCN[C@@H](CC)CO [Ethambutol dihydrochloride] | 100 | 0.23 | 
O=C(O)[C@H]1O[C@@H](Oc2cc3oc(-c4ccccc4)cc(=O)c3c(O)c2O)[C@H](O)[C@@H](O)[C@@H]1O [Baicalin] | 97.7 |  | 
COC(=O)N[C@H](C(=O)N1CCC[C@H]1c1nc(-c2ccc(-c3ccc(-c4c[nH]c([C@@H]5CCCN5C(=O)[C@@H](NC(=O)OC)C(C)C)n4)cc3)cc2)c[nH]1)C(C)C [Daclatasvir dihydrochloride] | 178 | 5.28 | 
O=C(O)c1cc(=O)[nH]c(=O)[nH]1 [Orotic acid] | 52.6 | 0.45 | 
CCOC(=O)c1ccc(OCCC2CCN(c3ccc(C)nn3)CC2)cc1 [Pirodavir] | 50.5 | -3.64 | 
C=CC1=C(C(=O)O)N2C(=O)[C@@H](NC(=O)/C(=N\O)c3csc(N)n3)[C@H]2SC1 [Cefdinir] | 118 | 2.33 | 
C=C(C)[C@@H]1CC[C@]2(C(=O)O)CC[C@]3(C)[C@H](CC[C@@H]4[C@@]5(C)CC[C@H](O)C(C)(C)[C@@H]5CC[C@]43C)[C@@H]12 [Betulinic acid] | 16.4 |  | 
O=c1[nH]cnc2c1ncn2[C@H]1CC[C@@H](CO)O1 [Didanosine] | 52.8 | -0.0652 | 

Molecule | activity at 10 µM [1, 3] [%] | (%) Cytotoxicity ([2]; human, 24 h, 10 μM) [%] | also measured
O=C(/C=C/c1ccc(O)cc1)c1ccc(O)cc1O [Isoliquiritigenin] | 172 | 0.86 | 
Cc1cccc(C)c1N(CC(=O)Nc1ccc(-c2ncon2)cc1)C(=O)C1CCS(=O)(=O)CC1 [Amenamevir] | 61.7 | 0.09 | 
C[C@H](Cn1cnc2c(N)ncnc21)OCP(=O)(O)O [Tenofovir] | 56.5 | 0.98 | 
OC[C@H]1O[C@@H]2O[C@H]3[C@H](O)[C@@H](O)[C@@H](O[C@H]4[C@H](O)[C@@H](O)[C@@H](O[C@H]5[C@H](O)[C@@H](O)[C@@H](O[C@H]6[C@H](O)[C@@H](O)[C@@H](O[C@H]7[C@H](O)[C@@H](O)[C@@H](O[C@H]8[C@H](O)[C@@H](O)[C@@H](O[C@H]1[C@H](O)[C@H]2O)O[C@@H]8CO)O[C@@H]7CO)O[C@@H]6CO)O[C@@H]5CO)O[C@@H]4CO)O[C@@H]3CO [Beta-Cyclodextrin] | 70.6 | -0.91 | 
C=C1[C@H](CO)[C@@H](O)C[C@@H]1n1cnc2c(=O)[nH]c(N)nc21 [Entecavir hydrate] | 23.6 | -1.04 | 
Cc1c(O)cccc1C(=O)N[C@@H](CSc1ccccc1)[C@H](O)CN1C[C@H]2CCCC[C@H]2C[C@H]1C(=O)NC(C)(C)C [Nelfinavir Mesylate] | 39.7 | 4.06 | 
CCc1nn(CC(=O)NCCCN(CC)CC)c(=O)c2cc3sc(C)cc3n12 [C795-0720] |  |  | (%) HuNoV GEs [1, 3]: 100.75%; (%) Cytotoxicity [2]: 0.72%
Nc1nc(O)c2ncn(COC(CO)CO)c2n1 [Ganciclovir] | 117 | 3.59 | 
Cc1cn([C@@H]2C[C@@H](O)[C@H](CO)O2)c(=O)[nH]c1=O [Telbivudine] | 70.2 | -0.33 | 
C[C@H](NC(=O)C(=O)Nc1ccccc1C(C)(C)C)C(=O)N[C@@H](CC(=O)O)C(=O)COc1c(F)c(F)cc(F)c1F [Emricasan] | 198 |  | 
N[C@@H](CCC(=O)N[C@@H](CS[C@@H]1CCn2ccc(CO)c21)C(=O)NCC(=O)O)C(=O)O [6466-0862] |  |  | (%) HuNoV GEs [1, 3]: 155.85%; (%) Cytotoxicity [2]: -0.22%
C=CC1=C(C(=O)O)N2C(=O)[C@@H](NC(=O)/C(=N\OCC(=O)O)c3csc(N)n3)[C@H]2SC1 [Cefixime] | 41.9 | 2.28 | 
CO/N=C(\C(=O)N[C@@H]1C(=O)N2C(C(=O)O)=C(C[N+]3(C)CCCC3)CS[C@H]12)c1csc(N)n1 [Cefepime Dihydrochloride Monohydrate] | 116 | 3.73 | 
Nc1nc2c(ncn2CCC(CO)CO)c(=O)[nH]1 [Penciclovir] | 22.1 | 2.02 | 
Cc1cn([C@H]2O[C@@H](CO)[C@H](O)[C@H]2F)c(=O)[nH]c1=O [Clevudine] | 33.8 | -0.09 | 
COC1=C2C[C@@H](C)C[C@H](OC)[C@H](O)[C@@H](C)/C=C(\C)[C@H](OC(N)=O)[C@@H](OC)/C=C\C=C(/C)C(=O)NC(=CC1=O)C2=O [Geldanamycin] | 18.6 | 67.53 | 
CO/N=C(\C(=O)N[C@@H]1C(=O)N2C(C(=O)O)=C(COC(C)=O)CS[C@H]12)c1csc(N)n1 [Cefotaxime sodium] | 10.1 | 0.51 | 
S=C(NCCc1ccccn1)Nc1ccc(Br)cn1 [Trovirdine] |  |  | activity at 10 µM [1]: 48.3%
CC(=O)Oc1c(C)c(C)c2c(c1C)CCC(C)(CCC[C@H](C)CCC[C@H](C)CCCC(C)C)O2 (stereo partly drawn) [Vitamin E Acetate] | 55.8 |  | 
CC(=O)Oc1ccccc1C(=O)Nc1ncc([N+](=O)[O-])s1 [Nitazoxanide] | 44.5 | 4.63 | 
COc1ncnc(NS(=O)(=O)c2ccc(N)cc2)c1OC [Sulfadoxine] | 50 | 2.36 | 

Molecule | activity at 10 µM [1, 3] [%] | (%) Cytotoxicity ([2]; human, 24 h, 10 μM) [%] | also measured
Nc1nc2c(ncn2COCCO)c(=O)[nH]1 [Aciclovir] | 54.4 | 0.59 | 
Maraviroc |  |  | (%) HuNoV GEs [1, 3]: 52.60%
Cc1nn(CCC(=O)Nc2cccc(C#N)c2)c(C)c1S(=O)(=O)N1CCCCC1 [G402-0939] |  |  | (%) HuNoV GEs [1, 3]: 147.17%
NC(=O)N1CCC(CC(=O)N2CCC([C@H]3c4ncc(Br)cc4CCc4cc(Cl)cc(Br)c43)CC2)CC1 [Lonafarnib] | 62.3 |  | 
Cc1cn([C@H]2C[C@H](N=[N+]=[N-])[C@@H](CO)O2)c(=O)[nH]c1=O [Zidovudine] | 57.6 |  | 
Dermofongin |  |  | (%) HuNoV GEs [1, 3]: 46.93%
Cn1c(Cn2ccc(C(F)(F)F)c(Oc3cc(Cl)cc(C#N)c3)c2=O)n[nH]c1=O [Doravirine] | 32.7 |  | 
Cc1cc(O)cc(C)c1Cl [Chloroxylenol] | 65.9 |  | 
C[C@@H]1CCO[C@H]2Cn3cc(C(=O)NCc4ccc(F)cc4F)c(=O)c(O)c3C(=O)N12 [Dolutegravir] | 8.52 |  | 
O=C(Nc1nc2ccc3scnc3c2s1)c1ccc2ccccc2c1 [KIN1148] |  |  | (%) HuNoV GEs [1, 3]: 58.10%
CC1(C)S[C@@H]2[C@H](NC(=O)[C@H](NC(=O)N3CCNC3=O)c3ccccc3)C(=O)N2[C@H]1C(=O)O [Azlocillin sodium] | 28 |  | 
Cc1c(-c2cnccn2)ssc1=S [Oltipraz] | 7.76 |  | 
Cc1ccc(NC(=O)C(=O)NC2CC(C)(C)NC(C)(C)C2)cc1 [YYA-021] |  |  | (%) HuNoV GEs [1, 3]: 54.17%
NC(=O)c1ncn([C@@H]2O[C@H](CO)[C@@H](O)[C@H]2O)n1 [Ribavirin] | 64.5 |  | 
NC12CC3CC(CC(C3)C1)C2 [Amantadine hydrochloride] | 232 |  | 
C[C@@]1(F)[C@H](O)[C@@H](CO)O[C@H]1n1ccc(=O)[nH]c1=O [PSI6206] |  |  | (%) HuNoV GEs [1, 3]: 143.70%
Dicurone |  |  | (%) HuNoV GEs [1, 3]: 90.75%
COC(=O)C1=C(C)NC(c2ncc(F)cc2F)=NC1c1ccc(F)cc1Cl (racemic) [Bay 41-4109 racemate] |  |  | (%) HuNoV GEs [1, 3]: 39.26%
HZ-1157 |  |  | (%) HuNoV GEs [1, 3]: 36.74%
C=C1CC[C@@H]2[C@](C)(COC(=O)CCC(=O)[O-])[C@H](OC(=O)CCC(=O)O)CC[C@@]2(C)[C@@H]1/C=C/C1=CCOC1=O.[K+] [Dehydroandrographolide Succinate Potasium Salt] |  |  | (%) HuNoV GEs [1, 3]: 40.48%
